Structures are written as SMILES. Several values for one entry are separate records, joined by “and”; a condition that tells them apart may be missing. Identical values can stand only once.

We go through twelve compounds from patent US20240065261A1, “PENETRATING CRYOPROTECTION AGENTS AND METHODS OF MAKING AND USING SAME” (The Research Foundation for The State University of New York, priority 2020, published 2024).

The subject of data set [1] is NIH-3T3 cells. Kind of data set: Post-thaw viability of cryopreserved NIH-3T3 cells (CCK-8), Example 1. It counts as cell-based. The following applies: for Post-thaw viability, 24 hours post thaw / Post-thaw viability, 48 hours post-thaw: Table 1. On the procedure:
Cryopreservation protocol. […] Discarded 95% of the old media and added 0.5 mL new DMEM (pH=7.4) with 10% FBS and 400 mM trehalose (filtered with 0.22 μm filter) and re-suspended the cells. • Transferred the cell culture to cryo-tube and stored the tubes at −80° C. for 3 days. • Thawed the cells at 37° C. in a water bath until ice melted. • Counted the cell density in each cryo-tube with cell counter. • Re-cultured the cells in 96-well plate with fresh DMEM (PH=7.4) with 10% FBS. (while keeping cell density the approximately the same for each well). • Used CCK-8 kit to test the post-thaw viability after certain time.

Data set [2] concerns NIH-3T3 cells. Put plainly: Post-thaw total cell recovery of cryopreserved cells (trypan blue exclusion). The following applies: ±SEM. The format is cell-based. The procedure: The delivery of sugar alcohols into cells makes it possible to turn these molecules into intracellular CPAs. […] Total post-thaw cell recovery, defined as the ratio (%) of post-thaw live cells to the number of initially frozen live cells, which provides a more accurate measure of cryoprotective outcome than cell viability, was used to assess the cryoprotective effects of the diesters.
Systematic studies were then performed by incubating the cells (1) with each of diesters 1-4 (10 mM), (2) with unmodified sorbitol, mannitol, xylitol, or erythritol (10 mM), and (3) in medium without any of the diesters or sugar alcohols, at 37° C. for 48 h. The cells treated with diesters 1-4 and the four sugar alcohols were then transferred to freezing media consisting of DMEM, 10% FBS and 400 mM trehalose. The cells incubated with only the medium were divided into two portions, one being directly transferred to the freezing medium containing 400 mM trehalose (control 1) and the other being placed in a different freezing medium consisting of DMEM, 10% FBS and 5% DMSO but without trehalose (control 2). After being frozen at −80° C. for 72 h, the cells were thawed in a warm water bath at 37° C. until ice melted. The post-thaw cells were either immediately analyzed for their survival or were cultured in growth media (DMEM with 10% FBS) for 24 h and 48 h before being analyzed.
Incubation (for cryopreservation). NIH/3T3 cells were seeded into cell culture treated plates (100 mm) at a density of 2×10^4 cells/mL (10 mL/plate), allowed to adhere overnight and then incubated with different sample solutions (10 mL) for 48 hours at 37° C. under 5% CO2. Control cells were incubated with growth medium.
Cryopreservation. At the end of the incubation, the cells were rinsed with PBS (2 mL) and detached using 0.25% trypsin-EDTA (3 mL). The cells were pelleted (200×g, 5 min) and resuspended in growth medium with 400 mM trehalose except for the control-2 group. For control-2 group, cells were resuspended in growth medium with 5% DMSO (v/v). An aliquot of cells of each group was then removed for counting by a DeNovix Celldrop cell counter to obtain prefreeze number of viable cells. The remaining cell suspension was transferred into a 2 mL cryogenic vial. The vials were directly transferred to −80° C. freezer without controlling cooling rate and stored at −80° C. freezer for 3 days. To thaw, cryogenic vials were removed from −80° C. freezer and suspended in a 37° C. water bath until ice melt. To the contents of each vial 1 mL growth medium was added and centrifuged (200×g , 5 min). The supernatant was discarded and cell pellet was resuspended in 1 mL growth cell medium. An aliquot of cell suspension of each group was then removed for counting with a DeNovix Celldrop cell counter to obtain the number of viable cells at 0-hr post-thaw. The remaining cell suspension was split equally and resuspended into two cell culture treated plates (100 mm) with 10 mL growth medium in each plate. The plates were then maintained for either 24 hours or 48 hours at 37° C. under 5% CO2. After being cultured for either 24 hours or 48 hours, the cells were rinsed with PBS (2 mL) and detached using 0.25% trypsin-EDTA (3 mL). The cells were pelleted (200×g, 5 min) and resuspended in growth medium. The cell suspension was then analyzed by DeNovix Celldrop cell counter to obtain number of viable cells at either 24-hr or 48-hr post-thaw.
Trypan Blue Exclusion Assay. For all time points, a sample of cells was mixed 1:1 in 0.4% trypan blue and counted using a DeNovix Celldrop. Cell recovery was calculated as the ratio of viable cells to the number of cells initially frozen.

The test system of data set [3] is 3T3 cells. Kind of data set: Cryopreservation, post-thaw recovery rate, Example 3. Conditions: incubated with medium only; frozen −80° C. in medium with 5% DMSO. It counts as cell-based. On the procedure: Cryopreservation: The cryopreservation effects of EGL-3Pro and EGL-3Phe were tested on 3T3 cells. The cells were incubated with 5 mM or 10 mM EGL-3Pro or 0.5 mM EGL-3Phe or medium only (two control groups) for 72 hours. After incubation, the cells were detached by treating […] pelleted by centrifuging (200×g). The cells were then resuspended in medium with 400 mM trehalose or 5% DMSO (for control 2 group) in cryovials and a small portion of cell suspension were used for counting pre-freeze cell number. The vials were directly put in −80° C. freezer and stored for at least 3 days. The cells were thawed in 37° C. water bath until ice melt, and resuspended in 10 mL fresh medium and pelleted by centrifuging (200×g). The cells were then resuspended in 1 mL fresh medium and counted by cell counter. The recovery rate was obtained by dividing post-thaw lived cell number by pre-freeze lived cell number.

Data set [4] concerns NIH-3T3 cells. Put plainly: Live/dead fluorescence microscopy of post-thaw cells (calcein-AM / ethidium homodimer-1). It counts as cell-based. Conditions: 24 h post-thaw; incubated with 10 mM for 48 h, frozen in media with 400 mM trehalose (FIG. 14). The procedure: DIC and Fluorescence images capturing. NIH/3T3 cells were treated as the same as for cryopreservation experiment and were thawed in a 37° C. water bath until ice melt. Cells in each vial were then pelleted (200×g, 5 min), re-suspended in 1 mL fresh growth medium and plated into 96 well plate and grown for 24 hours. Each well was washed with sterile PBS (100 μL). Sterile PBS (200 μL) containing 2 μM calcein-AM and 4 μM ethidium homodimer-1 (EthD-1) was then added to each well. The 96-well plate was then incubated in a CO2 incubator at 37° C. for 30 min. Fresh cells without freezing were plated at similar density in 96-well plate as comparison. DIC and fluorescence microscopy images were captured at 509 and 580 nm on Axioplan 2 fluorescent microscope (Zeiss [Carl Zeiss], Thornwood, NY) with an Axiocam MRm camera (Zeiss). Axiovision 4 software (Zeiss) was used for image acquisition. Digital images were processed with ImageJ (imagej.nih.gov/ij/).

Data set [5] relates to NIH-3T3 cells. Kind of data set: Cytotoxicity, CCK-8 cell viability after 48 h incubation.
Experimental: Cytotoxicity assays were performed by exposing NIH-3T3 cells to the diesters. Cell viability was determined by using Cell Counting Kit-8 (CCK-8) reagent and a BioTek microplate reader to count the numbers of live and dead cells.
NIH/3T3 cells were seeded into 96-well plates (Fisher brand) at a density of 8,000 cells in 150 μL growth medium per well. The cells were incubated for 24 hours at 37° C. with 5% CO2. After 24 hours all medium was aspired one row at a time and treated with various concentrations of each compound (10 mM, 5 mM, 1 mM, 0.5 mM and 0.1 mM) or carboxylic acid/NaOH (10 mM/5 mM, 5 mM/2.5 mM). The control cells were treated with fresh medium only. The cells were then incubated again for 48 hours at 37° C. with 5% CO2. After incubation, all medium was aspired and replaced with fresh medium and 10% (v/v) CCK-8 reagent and returned to incubate at 37° C. with 5% CO2 for 2 hours. Cell viability was then calculated from the OD value read by a plate reader (Biotek Synergy H1) at wavelength of 450 nm.
The mark [6] stands for this setting: incubated with 10% DMSO, reference set as 100%.
Where [7] appears, read: Table 2, incubated with 10% DMSO, reference set as 100%.
The mark [8] stands for this setting: Table 3, incubated with 10% DMSO, reference set as 100%.
Where [9] appears, read: incubated with media only, frozen in media containing 5% DMSO without trehalose.
Where [10] appears, read: incubated with 10 mM for 48 h, frozen −80° C. 72 h in media with 400 mM trehalose.
[11] abbreviates: incubated at 5 mM without DMSO, frozen −80° C. 72 hours, freezing media with 400 mM trehalose, 10% DMSO set as 100%.
[12] abbreviates: incubated at 10 mM without DMSO, frozen −80° C. 72 hours, freezing media with 400 mM trehalose, 10% DMSO set as 100%.
[13] abbreviates: Table 2, incubated 36 hours at 5 mM without DMSO, frozen −80° C. 72 hours, 400 mM trehalose, 10% DMSO set as 100%.
Setting [14] is: Table 2, incubated 36 hours at 10 mM without DMSO, frozen −80° C. 72 hours, 400 mM trehalose, 10% DMSO set as 100%.
Setting [15] is: Table 3, incubated 36 hours at 5 mM without DMSO, frozen −80° C. 72 hours, 400 mM trehalose, 10% DMSO set as 100%.
[16] abbreviates: Table 3, incubated 36 hours at 10 mM without DMSO, frozen −80° C. 72 hours, 400 mM trehalose, 10% DMSO set as 100%.

As to `C[S+](C)[O-]` [DMSO, dimethyl sulfoxide, reference compound], in data set [1] (setting [6]), the “Post-thaw viability, 24 hours post thaw” value worked out at 100.0 ± 11.8% and the “Post-thaw viability, 48 hours post-thaw” value worked out at 100.0 ± 4.0%. In data set [1] (setting [7]), the “Post-thaw viability (%), 24 hours post thaw” value stood at 100.0 ± 3.6% and the “Post-thaw viability (%), 48 hours post-thaw” value was determined as 100.0 ± 13.4%. In addition, in data set [1] (setting [8]), the “Post-thaw viability (%), 24 hours post thaw” value was found to be 100.0 ± 13.5% and the “Post-thaw viability (%), 48 hours post-thaw” value was found to be 100.0 ± 5.3%. Moreover, in data set [2] (setting [9]), the “Post-thaw recovery (%) 0-hr” value turned out to be 84.5 ± 3.8%, the “Post-thaw recovery (%) 24-hr” value amounted to 93.9 ± 2.4% and the “Post-thaw recovery (%) 48-hr” value is on record as 196.4 ± 5.7%. Moreover, in data set [3], the “0-hour post thaw recovery (%)” value turned out to be 77.9 ± 3.8%.
As to `CCC(=O)OC[C@@H](O)[C@@H](O)COC(=O)CC` [EryPr2], in data set [2] (setting [10]), the “Post-thaw recovery (%) 0-hr” value was 48% and 47.9 ± 3.4%; the “Post-thaw recovery (%) 24-hr” value stood at 42.6 ± 2.6%; the “Post-thaw recovery (%) 48-hr” value is 72% and 71.6 ± 3.9%.
`OC[C@@H](O)[C@@H](O)CO` [Erythritol, erythritol, reference compound]: in data set [2] (setting [10]), the “Post-thaw recovery (%) 0-hr” value was determined as 33.5 ± 2.7%, the “Post-thaw recovery (%) 24-hr” value was found to be 26.0 ± 0.6% and the “Post-thaw recovery (%) 48-hr” value was 42.3 ± 1.2%.
As for `O=C(OCC(COC(=O)[C@@H]1CCCN1)OC(=O)[C@@H]1CCCN1)[C@@H]1CCCN1` [GLC3P], in data set [1] (setting [11]), the “Post-thaw viability, 24 hours post thaw” value turned out to be 130.9 ± 5.3% and the “Post-thaw viability, 48 hours post-thaw” value is listed as 143.8 ± 4.2%. In addition, in data set [1] (setting [12]), the “Post-thaw viability, 24 hours post thaw” value stood at 174.7 ± 6.9% and the “Post-thaw viability, 48 hours post-thaw” value is given as 220.4 ± 5.5%.
As for `OC[C@@H](O)[C@@H](O)[C@H](O)[C@H](O)CO` [Mannitol, mannitol, reference compound], in data set [2] (setting [10]), the “Post-thaw recovery (%) 0-hr” value was 24.1 ± 1.8%, the “Post-thaw recovery (%) 24-hr” value is reported as 20.8 ± 1.5% and the “Post-thaw recovery (%) 48-hr” value is 41.5 ± 3.0%. Besides, the “Post-thaw viability/recovery in fluorescence microscopy images” value in data set [4] is “does not result in higher post-thaw viability than cells treated with media only”.
With `O=C(OC[C@H](OC(=O)[C@@H]1CCCN1)[C@@H](OC(=O)[C@@H]1CCCN1)[C@H](OC(=O)[C@@H]1CCCN1)[C@@H](COC(=O)[C@@H]1CCCN1)OC(=O)[C@@H]1CCCN1)[C@@H]1CCCN1` [SBT6P], the results for the “Post-thaw viability (%), 24 hours post thaw” value in data set [1] (setting [13]) and in data set [1] (setting [14]) were 33.3 ± 1.4% and 34.0 ± 3.5%, respectively. Also, the “Post-thaw viability (%), 48 hours post-thaw” value stood at 66.2 ± 2.0% in data set [1] (setting [13]) and 69.6 ± 6.5% in data set [1] (setting [14]).
Take `CCCC(=O)OC[C@@H](O)[C@@H](O)[C@H](O)[C@@H](O)COC(=O)CCC` [SorbBa2]: in data set [1] (setting [15]), the “Post-thaw viability (%), 24 hours post thaw” value was 113.4 ± 9.5% and the “Post-thaw viability (%), 48 hours post-thaw” value is recorded as 143.3 ± 7.4%. In addition, in data set [1] (setting [16]), the “Post-thaw viability (%), 24 hours post thaw” value is recorded as 150.4 ± 1.5% and the “Post-thaw viability (%), 48 hours post-thaw” value came to 211.8 ± 2.2%.
On to `OC[C@@H](O)[C@@H](O)[C@H](O)[C@@H](O)CO` [Sorbitol, sorbitol, reference compound], for which, in data set [2] (setting [10]), the “Post-thaw recovery (%) 0-hr” value was determined as 32.8 ± 3.2%, the “Post-thaw recovery (%) 24-hr” value is recorded as 28.4 ± 2.1% and the “Post-thaw recovery (%) 48-hr” value is on record as 50.8 ± 3.5%. The “Post-thaw viability/recovery in fluorescence microscopy images” value in data set [4] is given as “does not result in higher post-thaw viability than cells treated with media only”.
Take `CCC(=O)OC[C@@H](O)[C@H](O)[C@@H](O)COC(=O)CC` [XylPr2]: in data set [2] (setting [10]), the “Post-thaw recovery (%) 0-hr” value was 52.1 ± 4.8%, the “Post-thaw recovery (%) 24-hr” value is given as 49.7 ± 1.1% and the “Post-thaw recovery (%) 48-hr” value is reported as 90.0 ± 4.3%.
In the case of `OC[C@@H](O)[C@H](O)[C@@H](O)CO` [Xylitol, xylitol, reference compound], in data set [2] (setting [10]), the “Post-thaw recovery (%) 0-hr” value came out at 24.6 ± 2.4%, the “Post-thaw recovery (%) 24-hr” value was 22.1 ± 2.1% and the “Post-thaw recovery (%) 48-hr” value came to 44.3 ± 4.7%.
On to `CCCC(=O)O` [butyric acid], for which the “Cell viability relative to control groups” value in data set [5] (at 5 mM) is on record as approximately 50%; in data set [5] (at 10 mM) it was approximately 40%.
In the case of `CCC(=O)O` [propionic acid], the “Cell viability relative to control groups” value in data set [5] (up to 10 mM) is on record as approximately 70%.
